Laboratory results taken from ChEMBL document CHEMBL1143028, “Preparation of cyclic 2',3'-carbamate derivatives of erythromycin macrolide antibiotics” (Bioorg Med Chem, 2007).
Calls of active or inactive are those of the source. The rule behind the calls is not given here.

Experiments:
[1] = tested on: Staphylococcus aureus; test: Antibacterial activity against Staphylococcus aureus ATCC 25923 at […]; type: functional, organism-based
[2] = tested on: Escherichia coli; test: Antibacterial activity against Escherichia coli ATCC 25922 at […]; type: functional, organism-based

Compound: CC[C@H]1OC(=O)[C@H](C)C(=O)[C@H](C)[C@@H](O[C@@H]2O[C@H](C)C[C@H]3[C@H]2OC(=O)N3C)[C@](C)(OC)C[C@@H](C)C(=O)[C@H](C)[C@@H]2N(c3ccc(N4CCOCC4)c(F)c3)C(=O)O[C@@]21C
- Activity [1]: inactive
- Activity [2]: inactive

Compound: CC[C@H]1OC(=O)[C@H](C)[C@@H](O[C@H]2C[C@@](C)(OC)[C@@H](O)[C@H](C)O2)[C@H](C)[C@@H](O[C@@H]2O[C@H](C)C[C@H]3[C@H]2OC(=O)N3C)[C@](C)(OC)C[C@@H](C)C(=O)/C(C)=C/[C@]1(C)O
- Activity [1]: inactive
- Activity [2]: inactive

Compound: CC[C@H]1OC(=O)[C@H](C)[C@@H](O[C@H]2C[C@@](C)(OC)[C@@H](O)[C@H](C)O2)[C@H](C)[C@@H](O[C@@H]2O[C@H](C)C[C@H]3[C@H]2OC(=O)N3C)[C@](C)(OC)C[C@@H](C)C(=O)[C@H](C)[C@@H]2OC(=O)O[C@]12C
- Activity [1]: inactive
- Activity [2]: inactive

Compound: CC[C@H]1OC(=O)[C@H](C)C(=O)[C@H](C)[C@@H](O[C@@H]2O[C@H](C)C[C@H]3[C@H]2OC(=O)N3C)[C@](C)(OC)C[C@@H](C)C(=O)[C@H](C)[C@@H]2OC(=O)O[C@]12C
- Activity [1]: inactive
- Activity [2]: inactive

Compound: C=CCOC(=O)O[C@H]1[C@H](C)[C@@H](O[C@@H]2O[C@H](C)C[C@H]3[C@H]2OC(=O)N3C)[C@](C)(OC)C[C@@H](C)C(=O)[C@H](C)[C@@H]2OC(=O)O[C@]2(C)[C@@H](CC)OC(=O)[C@@H]1C
- Activity [1]: inactive
- Activity [2]: inactive

Compound: C=CCOC(=O)O[C@H]1[C@H](C)O[C@@H](O[C@H]2[C@H](C)[C@@H](O[C@@H]3O[C@H](C)C[C@H]4[C@H]3OC(=O)N4C)[C@](C)(OC)C[C@@H](C)C(=O)[C@H](C)[C@@H]3OC(=O)O[C@]3(C)[C@@H](CC)OC(=O)[C@@H]2C)C[C@@]1(C)OC
- Activity [1]: inactive
- Activity [2]: inactive

Compound: CC[C@H]1OC(=O)[C@H](C)[C@@H](O)[C@H](C)[C@@H](O[C@@H]2O[C@H](C)C[C@H]3[C@H]2OC(=O)N3C)[C@](C)(OC)C[C@@H](C)C(=O)[C@H](C)[C@@H]2OC(=O)O[C@]12C
- Activity [1]: inactive
- Activity [2]: inactive
